In patent publication US8980848B2, “Flavonoid dimers and their use” (The Hong Kong Polytechnic University, priority 2010, dated 2015):

Tests used:
[1] = Tumor cell line cytotoxicity of flavonoid dimers, LCC6; assay type: cell-based, human; conditions: human, LCC6 cells, IC50 of compound alone
Protocol: (§1) (b) Tumor Cell Line Cytotoxicity. The tumor cytotoxicity assays of flavonoid dimers were performed against LCC6, LCC6MDR and L929 cell lines. […] In brief, LCC6, LCC6MDR and L929 cells were seeded into 96-well flat bottom microtiter plate at 1×10^4 cells per well in a final volume of 100 μL media, respectively. A graded dose of flavonoid dimers was added into wells. The plate was incubated at 37° C. for 72 hrs at the atmosphere 5% CO2 in the air. The % of survivors was determined.

[2] = target: Pgp (LCC6MDR cells) (Homo sapiens, UniProt P08183); test: Cell proliferation assay: Pgp-modulating activity, reversal of anticancer drug resistance in LCC6MDR cells; conditions: for RF (Relative Fold), cpd at 0.5 μM: RF = (IC50 without modulator)/(IC50 with 0.5 μM modulator); for RF (Relative Fold), cpd at 0.5 μM / RF (Relative Fold), cpd at 1 μM: paclitaxel; for RF (Relative Fold), cpd at 0.5 μM / RF (Relative Fold), cpd at 1 μM / EC50: LCC6MDR; for RF (Relative Fold), cpd at 1 μM: RF = (IC50 without modulator)/(IC50 with 1.0 μM modulator); for EC50: EC50 of compounds for reversing anticancer drug resistance (nM), Paclitaxel; for Therapeutic index: IC50 of compounds for L929/EC50 of compounds for lowering paclitaxel drug resistance
Sequence of Pgp (LCC6MDR cells) (P08183 whole entry): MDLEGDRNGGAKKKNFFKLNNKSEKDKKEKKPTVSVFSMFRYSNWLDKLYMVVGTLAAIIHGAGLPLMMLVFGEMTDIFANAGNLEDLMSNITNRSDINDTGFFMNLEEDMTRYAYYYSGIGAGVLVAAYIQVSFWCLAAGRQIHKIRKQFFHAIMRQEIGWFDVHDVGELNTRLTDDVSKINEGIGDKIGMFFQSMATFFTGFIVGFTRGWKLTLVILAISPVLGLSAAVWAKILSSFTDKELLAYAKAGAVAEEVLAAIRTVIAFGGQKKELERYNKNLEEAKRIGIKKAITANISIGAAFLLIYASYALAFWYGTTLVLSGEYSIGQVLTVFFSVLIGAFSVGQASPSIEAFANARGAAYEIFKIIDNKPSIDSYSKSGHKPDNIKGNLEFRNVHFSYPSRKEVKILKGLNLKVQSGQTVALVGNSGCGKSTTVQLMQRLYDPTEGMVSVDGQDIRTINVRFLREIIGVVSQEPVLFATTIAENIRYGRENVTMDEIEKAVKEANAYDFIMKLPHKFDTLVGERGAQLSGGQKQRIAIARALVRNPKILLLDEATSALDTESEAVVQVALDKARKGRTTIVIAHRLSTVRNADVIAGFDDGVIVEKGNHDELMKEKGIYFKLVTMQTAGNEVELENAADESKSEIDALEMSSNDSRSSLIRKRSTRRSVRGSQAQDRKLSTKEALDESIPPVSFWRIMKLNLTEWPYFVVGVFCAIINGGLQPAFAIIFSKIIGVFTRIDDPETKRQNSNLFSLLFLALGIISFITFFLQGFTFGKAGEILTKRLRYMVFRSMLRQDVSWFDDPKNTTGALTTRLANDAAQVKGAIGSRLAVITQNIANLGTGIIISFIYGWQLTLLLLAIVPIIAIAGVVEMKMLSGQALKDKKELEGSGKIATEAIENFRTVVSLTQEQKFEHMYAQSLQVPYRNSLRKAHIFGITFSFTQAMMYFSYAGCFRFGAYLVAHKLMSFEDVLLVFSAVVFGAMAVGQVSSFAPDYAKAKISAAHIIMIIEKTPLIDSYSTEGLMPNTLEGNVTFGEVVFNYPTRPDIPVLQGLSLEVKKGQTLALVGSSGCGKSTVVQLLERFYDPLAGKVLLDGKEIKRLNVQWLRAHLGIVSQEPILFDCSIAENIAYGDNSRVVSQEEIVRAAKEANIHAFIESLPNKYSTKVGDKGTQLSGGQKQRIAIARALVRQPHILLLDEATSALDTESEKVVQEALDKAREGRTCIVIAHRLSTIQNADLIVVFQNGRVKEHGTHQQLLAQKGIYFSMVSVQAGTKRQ
Protocol: Cell Proliferation Assay. 6,000 cells of LCC6 or LCC6MDR and anticancer drugs (paclitaxel, vinblastine, vincristine, doxorubicin and mitoxantrone) were mixed with or without modulators to a final volume of 200 μL in each well of 96-well plates. […] The plates were then incubated for 5 days at 37° C. […] IC50 values were calculated from the dose-response curves of MTS assays (Prism 4.0).

[3] = Tumor cell line cytotoxicity of flavonoid dimers, LCC6MDR; assay type: cell-based, human; conditions: human, LCC6MDR cells, IC50 of compound alone
Protocol: as §1

[4] = Cytotoxicity of flavonoid dimers, L929 mouse fibroblast; assay type: cell-based; conditions: mouse, L929 fibroblast cells, IC50 of compound alone, 72 hrs, mouse fibroblast
Protocol: as §1

| Compound | IC50 at 72 h [1] [µM] | RF (Relative Fold), cpd at 0.5 μM [2] | RF (Relative Fold), cpd at 1 μM [2] | IC50 at 72 h [3] [µM] | IC50 at 72 h [4] [µM] | EC50 [2] [nM] | Therapeutic index [2] |
| --- | --- | --- | --- | --- | --- | --- | --- |
| O=c1cc(-c2ccc(OCCOCCN(CCOCCOc3ccc(-c4cc(=O)c5ccccc5o4)cc3)Cc3ccncn3)cc2)oc2ccccc12 [Compound 64e, 1,13-Bis[4′-(4H-chromen-4-on-2-yl)phenyl]-7-(4-pyrimidinylmethyl)-1,4,10,13-tetraoxa-7-azamidecane] | > 50 | (8.3) | (61.2) | > 50 | > 50 | – | – |
| COc1cc(-c2cc(=O)c3ccccc3o2)ccc1OCCOCCN(CCOCCOc1ccc(-c2cc(=O)c3ccccc3o2)cc1OC)C(=O)OC(C)(C)C [Compound 16b, 1,13-Bis[4′-((4H-chromen-4-on-2-yl)-3′-methoxyphenyl)]-7-(tert-butylformyl)-1,4,10,13-tetraoxa-7-azamidecane] | 8.3 ± 1.4 | (8.7) | – | 6.9 ± 2.9 | 33.3 | – | – |
| N#Cc1ccc(CN(CCOCCOc2ccc(-c3cc(=O)c4ccccc4o3)cc2)CCOCCOc2ccc(-c3cc(=O)c4ccccc4o3)cc2)cc1 [Compound 51, 1,13-Bis[4′-(4H-chromen-4-on-2-yl)phenyl]-7-(4-cyanobenzyl)-1,4,10,13-tetraoxa-7-azamidecane] | > 100 | (2.6) | (5.9) | > 100 | 25.2 ± 12.4 | – | – |
| O=c1cc(-c2ccc(OCCOCCN(CCOCCOc3ccc(-c4cc(=O)c5ccccc5o4)cc3)Cc3ccnc(Br)c3)cc2)oc2ccccc12 [Compound 64b, 1,13-Bis[4′-(4H-chromen-4-on-2-yl)phenyl]-7-(4-(2-bromopyridyl)methyl)-1,4,10,13-tetraoxa-7-azamidecane] | > 100 | (8.4) | (76.6) | > 100 | > 100 | – | – |
| CC(=O)Oc1ccc(CN(CCOCCOc2ccc(-c3cc(=O)c4ccccc4o3)cc2)CCOCCOc2ccc(-c3cc(=O)c4ccccc4o3)cc2)cc1 [Compound 42c, 1,13-Bis[4′-(4H-chromen-4-on-2-yl)phenyl]-7-(4-acetyloxybenzyl)-1,4,10,13-tetraoxa-7-azamidecane] | 6.6 ± 1 | (95.7) | (117.8) | 5.9 ± 0.7 | 4.5 ± 0.1 | 140 ± 12 | 32.1 |
| CC(C)(C)OC(=O)Nc1ccc(CN(CCOCCOc2ccc(-c3cc(=O)c4ccccc4o3)cc2)CCOCCOc2ccc(-c3cc(=O)c4ccccc4o3)cc2)cc1 [Compound 54, 1,13-Bis[4′-(4H-chromen-4-on-2-yl)phenyl]-7-(4-tert-butyloxycarbonylanimobenzyl)-1,4,10,13-tetraoxa-7-azamidecane] | > 50 | (45.0) | (95.7) | > 50 | > 50 | 188 | 266.0 |
| O=c1cc(-c2ccc(OCCOCCN(CCOCCOc3ccc(-c4cc(=O)c5ccccc5o4)cc3)c3ccccc3)cc2)oc2ccccc12 [Compound 64h, 1,13-Bis[4′-(4H-chromen-4-on-2-yl)phenyl]-7-(phenyl)-1,4,10,13-tetraoxa-7-azamidecane] | > 100 | (11.6) | (72.9) | > 100 | > 100 | – | – |
| COc1cc(CN(CCOCCOc2ccc(-c3cc(=O)c4ccccc4o3)cc2)CCOCCOc2ccc(-c3cc(=O)c4ccccc4o3)cc2)cc(OC)c1 [Compound 44, 1,13-Bis[4′-(4H-chromen-4-on-2-yl)phenyl]-7-(3,5-dimethoxybenzyl)-1,4,10,13-tetraoxa-7-azamidecane] | > 100 | (19.1) | (51.0) | > 100 | > 100 | – | – |
| Nc1ccc(CN(CCOCCOc2ccc(-c3cc(=O)c4ccccc4o3)cc2)CCOCCOc2ccc(-c3cc(=O)c4ccccc4o3)cc2)cc1 [Compound 55, 1,13-Bis[4′-(4H-chromen-4-on-2-yl)phenyl]-7-(4-aminobenzyl)-1,4,10,13-tetraoxa-7-azamidecane] | > 50 | (8.8) | (72.9) | > 50 | > 50 | 244 | 204.9 |
| C=Cc1ccc(CN(CCOCCOc2ccc(-c3cc(=O)c4ccccc4o3)cc2)CCOCCOc2ccc(-c3cc(=O)c4ccccc4o3)cc2)cc1 [Compound 52, 1,13-Bis[4′-(4H-chromen-4-on-2-yl)phenyl]-7-(4-vinylbenzyl)-1,4,10,13-tetraoxa-7-azamidecane] | 21 ± 4.7 | (72.9) | (117.8) | 28.3 ± 8.2 | 7.4 ± 1 | – | – |
| O=c1cc(-c2ccc(OCCOCCN(CCOCCOc3ccc(-c4cc(=O)c5ccccc5o4)cc3)Cc3ccc(C(F)(F)F)cc3)cc2)oc2ccccc12 [Compound 35, 1,13-Bis[4′-(4H-chromen-4-on-2-yl)phenyl]-7-(4-trifluoromethylbenzyl)-1,4,10,13-tetraoxa-7-azamidecane] | > 100 | (37.3) | – | > 100 | 32.7 | 150 | 218.0 |
| COc1cccc(CN(CCOCCOc2ccc(-c3cc(=O)c4ccccc4o3)cc2)CCOCCOc2ccc(-c3cc(=O)c4ccccc4o3)cc2)c1 [Compound 43, 1,13-Bis[4′-(4H-chromen-4-on-2-yl)phenyl]-7-(3-methoxybenzyl)-1,4,10,13-tetraoxa-7-azamidecane] | > 100 | (22.5) | (95.7) | > 100 | > 100 | – | – |
| O=c1cc(-c2ccc(OCCOCCN(CCOCCOc3ccc(-c4cc(=O)c5ccccc5o4)cc3)Cc3ccc4ccccc4n3)cc2)oc2ccccc12 [Compound 64g, 1,13-Bis[4′-(4H-chromen-4-on-2-yl)phenyl]-7-(2-quinolinylmethyl)-1,4,10,13-tetraoxa-7-azamidecane] | > 100 | (66.6) | (102.1) | > 100 | 8.5 ± 2.3 | – | – |
| O=c1cc(-c2ccc(OCCOCCN(CCOCCOc3ccc(-c4cc(=O)c5ccccc5o4)cc3)Cc3ccccc3Cl)cc2)oc2ccccc12 [Compound 50, 1,13-Bis[4′-(4H-chromen-4-on-2-yl)phenyl]-7-(2-chlorobenzyl)-1,4,10,13-tetraoxa-7-azamidecane] | > 100 | (11.9) | (95.7) | > 100 | > 100 | – | – |
| O=c1cc(-c2ccc(OCCOCCN(CCOCCOc3ccc(-c4cc(=O)c5ccccc5o4)cc3)Cc3ccc(F)cc3F)cc2)oc2ccccc12 [Compound 40, 1,13-Bis[4′-(4H-chromen-4-on-2-yl)phenyl]-7-(2,4-difluorobenzyl)-1,4,10,13-tetraoxa-7-azamidecane] | > 100 | (32.6) | (117.8) | > 100 | > 100 | 246 ± 66 | >406.5 |
